# T1: human OCT1 (Homo sapiens, UniProt O15245)
# T1 construct: expressed in transfected cells; host or cells: HEK293 (Flp-In system)
# T1 sequence (O15245 1-554): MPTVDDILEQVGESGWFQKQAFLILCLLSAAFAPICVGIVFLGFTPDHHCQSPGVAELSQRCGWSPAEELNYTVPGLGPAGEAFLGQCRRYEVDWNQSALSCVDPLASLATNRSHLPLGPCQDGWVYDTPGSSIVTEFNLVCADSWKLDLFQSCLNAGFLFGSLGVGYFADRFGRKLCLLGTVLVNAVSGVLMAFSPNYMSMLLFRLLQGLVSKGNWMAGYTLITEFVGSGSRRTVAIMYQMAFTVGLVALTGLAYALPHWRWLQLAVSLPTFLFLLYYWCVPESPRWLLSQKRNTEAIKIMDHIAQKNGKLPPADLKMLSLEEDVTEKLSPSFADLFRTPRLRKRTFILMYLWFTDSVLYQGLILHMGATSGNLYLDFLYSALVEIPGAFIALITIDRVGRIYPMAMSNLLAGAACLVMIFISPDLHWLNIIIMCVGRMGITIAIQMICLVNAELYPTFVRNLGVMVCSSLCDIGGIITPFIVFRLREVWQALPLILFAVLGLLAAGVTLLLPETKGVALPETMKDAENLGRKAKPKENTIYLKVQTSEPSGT
# T2: mouse OCT1 (Mus musculus, UniProt O08966)
# T2 construct: expressed in transfected cells; host or cells: HEK293 (Flp-In system)
# T2 sequence (O08966 1-556): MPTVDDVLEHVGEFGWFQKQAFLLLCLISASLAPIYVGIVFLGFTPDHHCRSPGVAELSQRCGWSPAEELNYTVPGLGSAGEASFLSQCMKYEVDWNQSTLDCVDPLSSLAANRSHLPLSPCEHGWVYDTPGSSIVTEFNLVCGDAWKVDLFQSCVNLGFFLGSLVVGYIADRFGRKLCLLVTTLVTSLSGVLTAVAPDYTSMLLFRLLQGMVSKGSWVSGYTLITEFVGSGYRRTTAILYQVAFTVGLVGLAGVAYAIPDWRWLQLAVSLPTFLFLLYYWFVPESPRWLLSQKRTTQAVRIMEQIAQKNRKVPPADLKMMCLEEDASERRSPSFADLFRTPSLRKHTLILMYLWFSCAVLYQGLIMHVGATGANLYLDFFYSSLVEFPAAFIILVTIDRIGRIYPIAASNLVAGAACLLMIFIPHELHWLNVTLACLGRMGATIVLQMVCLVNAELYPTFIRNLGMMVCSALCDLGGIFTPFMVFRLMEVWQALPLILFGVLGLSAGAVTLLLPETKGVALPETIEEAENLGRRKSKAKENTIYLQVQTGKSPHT
# T3: human OCT2 (Homo sapiens, UniProt O15244)
# T3 construct: expressed in transfected cells; host or cells: HEK293 (Flp-In system)
# T3 sequence (O15244 1-555): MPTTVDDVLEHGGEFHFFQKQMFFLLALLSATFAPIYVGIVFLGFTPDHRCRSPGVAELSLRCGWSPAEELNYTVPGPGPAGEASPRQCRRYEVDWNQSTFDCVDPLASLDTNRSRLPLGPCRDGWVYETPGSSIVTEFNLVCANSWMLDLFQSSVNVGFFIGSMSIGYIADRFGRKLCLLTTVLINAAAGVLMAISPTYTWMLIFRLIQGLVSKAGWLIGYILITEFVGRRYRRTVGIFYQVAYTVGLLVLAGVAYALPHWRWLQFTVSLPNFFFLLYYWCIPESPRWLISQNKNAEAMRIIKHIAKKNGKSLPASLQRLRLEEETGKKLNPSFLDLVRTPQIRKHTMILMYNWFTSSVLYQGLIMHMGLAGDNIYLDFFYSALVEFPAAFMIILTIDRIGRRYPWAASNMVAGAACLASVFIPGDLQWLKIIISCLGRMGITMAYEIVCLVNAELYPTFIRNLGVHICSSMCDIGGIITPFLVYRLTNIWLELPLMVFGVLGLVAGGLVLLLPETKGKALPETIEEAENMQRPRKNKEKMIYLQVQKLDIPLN
# B1: human OCT1 (Homo sapiens) (protein)
# chain: MPTVDDILEQVGESGWFQKQAFLILCLLSAAFAPICVGIVFLGFTPDHHCQSPGVAELSQRCGWSPAEELNYTVPGLGPAGEAFLGQCRRYEVDWNQSALSCVDPLASLATNRSHLPLGPCQDGWVYDTPGSSIVTEFNLVCADSWKLDLFQSCLNAGFLFGSLGVGYFADRFGRKLCLLGTVLVNAVSGVLMAFSPNYMSMLLFRLLQGLVSKGNWMAGYTLITEFVGSGSRRTVAIMYQMAFTVGLVALTGLAYALPHWRWLQLAVSLPTFLFLLYYWCVPESPRWLLSQKRNTEAIKIMDHIAQKNGKLPPADLKMLSLEEDVTEKLSPSFADLFRTPRLRKRTFILMYLWFTDSVLYQGLILHMGATSGNLYLDFLYSALVEIPGAFIALITIDRVGRIYPMAMSNLLAGAACLVMIFISPDLHWLNIIIMCVGRMGITIAIQMICLVNAELYPTFVRNLGVMVCSSLCDIGGIITPFIVFRLREVWQALPLILFAVLGLLAAGVTLLLPETKGVALPETMKDAENLGRKAKPKENTIYLKVQTSEPSGT
# notes: expressed in transfected cells; host or cells: HEK293 (Flp-In system)
# How the values were obtained:
# dog OCT1 = test: Uptake in HEK293 cells stably overexpressing dog OCT1; conditions: for vmax ± SEM, dOCT1: OCT1-mediated uptake, HEK293, 2 min, 37 °C, pH 7.4, control cells subtracted; for fold higher transport capacity by dog than mouse OCT1 / fold lower affinity by dog than mouse OCT1: dog OCT1 versus mouse OCT1; for Km at 2 min: dog; for CLint ± SEM, dOCT1: intrinsic clearance = vmax divided by KM for each experiment
# Experimental: The total uptake is shown for the overexpressing and control cells (left hand side). OCT1-mediated uptake (right hand side) was calculated by subtracting the uptake of control cells (pcDNA5) from the uptake of OCT1-overexpressing cells. The means and standard errors of the means are shown for at least three independent experiments.
# For generation and characterization, see the Supplementary Methods, Figure S7, and [29, 47]. Cells were cultured in Dulbecco’s Modified Eagle’s Medium (DMEM) supplemented with 10% FBS, 100 U/mL penicillin, and 100 µg/mL streptomycin at 37 °C and 5% CO2. Cells were passaged twice a week.
# At 48 h prior to the experiment, 6 × 10^5 cells were seeded per well in 12-well plates pre-coated with poly-D-lysine.
# Cellular uptake experiments were performed at 37 °C and pH 7.4 using Hanks’ Buffered Salt Solution (HBSS) supplemented with 10 mM HEPES (referred to as HBSS+ in the following). Cells were washed with 1 mL pre-warmed (37 °C) HBSS+ and uptake was initiated by adding 400 µL of pre-warmed HBSS+ containing the substrate. Uptake was allowed for exactly 2 min and stopped by adding 2 mL ice-cold HBSS+. Cells were washed twice with 2 mL ice-cold HBSS+ then lysed with 80% acetonitrile supplemented with internal standard. The intracellularly accumulated substrate concentrations were measured using LC-MS/MS as described in the following and normalized to the amount of total protein in the samples as measured using the bicinchoninic acid assay.
# Intracellular substrate concentrations were quantified using LC-MS/MS. […] The pellet was reconstituted with 200 µL 0.1% formic acid and between 5 and 10 µL was injected into the LC-MS/MS system (Table S2).
# An API4000 QTRAP tandem mass spectrometer with ESI interface (AB SCIEX, Darmstadt, Germany) coupled to a Shimadzu Nexera X2 UHPLC system with LC 30AD pumps and SiL 30AC autosampler (Shimadzu, Duisburg, Germany) was used for analysis.
# Intrinsic clearance CLint was calculated by dividing vmax by KM for each experiment. Kinetic parameters were compared between OCT1 orthologs using an ANOVA followed by Tukey’s honestly significant difference post hoc comparisons in SPSS Statistics version 28 (SPSS Inc., IBM, Chicago, IL, USA).
# human OCT1 = molecular target: T1, human OCT1; test: Uptake in HEK293 cells stably overexpressing human OCT1; type: in vitro ADME; conditions: intrinsic clearance = vmax divided by KM for each experiment
# Text: (§1) Cells were passaged twice a week.
# (§2) Intracellular substrate concentrations were quantified using LC-MS/MS.
# mouse OCT1 = molecular target: T2, mouse OCT1; test: Uptake in HEK293 cells stably overexpressing mouse OCT1; type: in vitro ADME; conditions: intrinsic clearance = vmax divided by KM for each experiment
# Text: as §1, §2
# dog OCT2 = test: Uptake in HEK293 cells stably overexpressing dog OCT2; type: in vitro ADME
# Text: as §1, §2
# human OCT2 = molecular target: T3, human OCT2; test: Uptake in HEK293 cells stably overexpressing human OCT2; type: in vitro ADME; conditions: intrinsic clearance = vmax divided by KM for each experiment
# Text: as §1, §2
# [1] = substrate: CC(Cc1ccc(O)cc1)NCC(O)c1cc(O)cc(O)c1; test: cells, lysate or membranes named; conditions: other: OCT1-mediated uptake, HEK293, 2 min, Michaelis–Menten fit; pH 7.4
# [2] = substrate: CCCC[N+]1(C)[C@@H]2C[C@@H](OC(=O)[C@H](CO)c3ccccc3)C[C@H]1[C@@H]1O[C@@H]12; test: Uptake in HEK293 cells stably overexpressing human OCT1; type: in vitro ADME; conditions: other: OCT1-mediated uptake, HEK293, 2 min, Michaelis–Menten fit; pH 7.4
# Experimental: (§3) Cellular uptake experiments were performed at 37 °C and pH 7.4 using Hanks’ Buffered Salt Solution (HBSS) supplemented with 10 mM HEPES (referred to as HBSS+ in the following). Cells were washed with 1 mL pre-warmed (37 °C) HBSS+ and uptake was initiated by adding 400 µL of pre-warmed HBSS+ containing the substrate. Uptake was allowed for exactly 2 min and stopped by adding 2 mL ice-cold HBSS+. Cells were washed twice with 2 mL ice-cold HBSS+ then lysed with 80% acetonitrile supplemented with internal standard. The intracellularly accumulated substrate concentrations were measured using LC-MS/MS as described in the following and normalized to the amount of total protein in the samples as measured using the bicinchoninic acid assay [49].
# [3] = substrate: O=C(O[C@H]1C[C@H]2CC[C@@H](C1)[N+]21CCCC1)C(O)(c1ccccc1)c1ccccc1; test: as above; type: in vitro ADME; conditions: other: OCT1-mediated uptake, HEK293, 2 min, Michaelis–Menten fit; pH 7.4
# Experimental: as §3
molecule,measurement,setting,value
"CCCC[N+]1(C)[C@@H]2C[C@@H](OC(=O)[C@H](CO)c3ccccc3)C[C@H]1[C@@H]1O[C@@H]12 (stereo partly shown) [Butylscopolamine, butylscopolamine bromide]","vmax ± SEM, dOCT1",dog OCT1,1383 ± 112 pmol × min^−1 × mg Protein^−1
same,"difference in uptake kinetics between dog and human OCT1, in words",dog OCT1; dog OCT1 versus human OCT1,no significant differences
same,fold higher transport capacity by dog than mouse OCT1,dog OCT1,1.8 fold
same,fold lower affinity by dog than mouse OCT1,dog OCT1,2.9 fold
same,Km at 2 min,"dog OCT1; HEK293 cells stably overexpressing dog OCT1, pH 7.4",18.7 ± 3.32 µM
same,"CLint ± SEM, dOCT1",dog OCT1,80.5 ± 12.3 µL × min^−1 × mg Protein^−1
same,"CLint ± SEM, dOCT1",dog OCT1; listed as butylscopolamine,122 µL × min^−1 × mg Protein^−1
same,"CLint ± SEM, hOCT1",human OCT1,84.4 ± 6.76 µL × min^−1 × mg Protein^−1
same,"CLint ± SEM, mOCT1",mouse OCT1,131 ± 25.6 µL × min^−1 × mg Protein^−1
same,fold lower transport by dog OCT2 compared to human OCT2,dog OCT2; dog OCT2 versus human OCT2,10 fold
same,"uptake by dog OCT2 cells compared to control cells, in words","dog OCT2; especially at low concentrations, data could not be fitted to the Michaelis–Menten equation",only a slight increase
same,"CLint ± SEM, hOCT2",human OCT2,81.6 ± 2.16 µL × min^−1 × mg Protein^−1
"O=C(O[C@H]1C[C@H]2CC[C@@H](C1)[N+]21CCCC1)C(O)(c1ccccc1)c1ccccc1 [Trospium, trospium chloride]","vmax ± SEM, dOCT1",dog OCT1,835 ± 64.9 pmol × min^−1 × mg Protein^−1
same,fold higher transport capacity by dog than mouse OCT1,dog OCT1,3.4 fold
same,fold lower affinity by dog than mouse OCT1,dog OCT1,4.4 fold
same,Km at 2 min,dog OCT1; pH 7.4,5.72 ± 0.3 µM
same,"CLint ± SEM, dOCT1",dog OCT1,146 ± 10.3 µL × min^−1 × mg Protein^−1
same,"CLint ± SEM, hOCT1",human OCT1,117 ± 12.7 µL × min^−1 × mg Protein^−1
same,"CLint ± SEM, mOCT1",mouse OCT1,180 ± 37.5 µL × min^−1 × mg Protein^−1
same,"vmax ± SEM, dOCT2","dog OCT2; OCT2-mediated uptake, HEK293, 2 min, 37 °C, pH 7.4, control cells subtracted",224 ± 14.6 pmol × min^−1 × mg Protein^−1
same,fold lower affinity by dog OCT2 than human OCT2,dog OCT2; dog OCT2 versus human OCT2,5.7 fold
same,Km at 2 min,"dog OCT2; dog, pH 7.4, OCT2-mediated uptake, HEK293, 2 min, Michaelis–Menten fit, read-out: KM ± SEM, dOCT2",2.18 ± 0.27 µM
same,"CLint ± SEM, dOCT2",dog OCT2; intrinsic clearance = vmax divided by KM for each experiment,106 ± 8.78 µL × min^−1 × mg Protein^−1
same,"CLint ± SEM, hOCT2",human OCT2,278 ± 40.5 µL × min^−1 × mg Protein^−1
B1,Km,[1],1.19 ± 0.09 µM
same,Km,[2],15.0 ± 1.67 µM
same,Vmax,[2],0.00125 µmol/min/mg
same,Vmax/Km,[2],84.4 µL/min/mg
same,Km,[3],13.3 ± 1.58 µM
same,Vmax,[3],0.0015 µmol/min/mg
same,Vmax/Km,[3],117 µL/min/mg
